Measured values taken from US20260198495A1, “BINARY INSECTICIDE COMPOSITION AND USE THEREOF” (SHENYANG SINOCHEM AGROCHEMICALS R & D CO., LTD., priority 2022, published 2026).

Columns and labels:
Format in all cases: in vivo
[1] = tested on: 3rd-instar larvae of Spodoptera exigua Hübner; test: Joint toxicity (LC50, CTC) of I-72 + indoxacarb, leaf-disk dipping, Example 1, Table 1; conditions: Spodoptera exigua, cabbage leaf-disk dipping, 72 h, A = compound I-72, B = indoxacarb, read-out: LC50
Description: Test subject: 3rd-instar larvae of Spodoptera exigua Hübner, a sensitive strain reared indoors.
Test conditions: temperature: 24-26° C., humidity: RH 60%, and illumination: L:D=14:10.
(§1) Preparation method: the test pesticides were accurately weighed respectively with an electronic analytical balance. After the two technical materials were respectively added into an appropriate amount of solvent and completely dissolved, the stock solution of the required concentration was prepared with water containing 0.1% Tween 80. The stock solutions of the two active ingredients were mixed in a certain ratio to prepare a mixed solution, which was then diluted respectively into a series of pesticide solutions with a certain concentration gradient according to the experimental design dosage.
Experimental method: the dipping method was adopted. […]
The co-toxicity coefficient (CTC value) of the mixture was calculated according to the following formula:
[formula] • in the formula: ATI-measured toxicity index of the mixture; S-LC50 of the standard pesticide; and M-LC50 of the mixture. […]
[formula] • in the formula: CTC-co-toxicity coefficient; ATI-measured toxicity index of the mixture; and TTI-theoretical toxicity index of the mixture. • CTC-co-toxicity coefficient • ATI-measured toxicity index of the mixture • TTI-theoretical toxicity index of the mixture

[2] = tested on: 3rd-instar larvae of Pyrausta nubilalis Hubern; test: Synergism assay (Bliss) of I-72 + cartap, monosultap, bisultap, Example 5, Table 5; conditions: Ostrinia nubilalis, 72 h, read-out: Mortality rate (%)
Description: Test subject: 3rd-instar larvae of Pyrausta nubilalis Hubern, a sensitive strain reared indoors.
Test conditions: temperature: 24-26° C., humidity: RH 60%, and illumination: L:D=14:10
as §1
Experimental method: the artificial diet-pesticide film method was adopted. A standard clean 24-well culture plate was selected. 1 ml of artificial diet was added to each well. After the diet cooled and solidified, a quantitative amount of a pesticide solution was added to the culture plate using a continuous sampler, and then it was air-dried naturally in the shade. The standard test insects were introduced, with 1 insect in each well, a total of 48 insects. The treated test insects were placed in an observation room under certain conditions. The reaction of the test insects was regularly observed, and the number of dead and live insects was investigated 72 h later.
The evaluation method adopted was the Bliss method. This method is applicable to the qualitative screening of insecticidal compositions. According to the concept of independent joint action he proposed, Bliss believes that the theoretical mortality rate P when insecticides are used in combination can be calculated by the following formula: […]
Pm is the mortality rate (%) of the target when the first active ingredient is at a concentration of m; and Pn is the mortality rate (%) of the target when the second active ingredient is at a concentration of n.
If the actual mortality rate of the target after the two active ingredients are mixed at a certain concentration is greater than theoretical mortality rate P, it is determined that the two active ingredients have a synergistic effect when used in combination at the set concentration, and otherwise, they have an antagonistic effect.

[3] = tested on: adult Bemisia tabaci (Gennadius); test: Joint toxicity of I-72 + abamectin, seedling spraying, Example 13, Table 13; conditions: Bemisia tabaci; adults, kidney bean seedling spraying, 72 h; A = compound I-72, B = abamectin; read-out: LC50
Excerpt: Test subject: adult Bemisia tabaci (Gennadius), a sensitive strain reared indoors.
Experimental method: the spraying method was adopted. The kidney bean seedlings cultivated in the greenhouse were selected and evenly sprayed with the pesticide solution in the order from low dosage to high dosage according to the experimental design. After natural air-drying in the shade, a self-made glass cover was put on, and the test insects were introduced, with 20-30 insects for each treatment and 3 replicates. In addition, a blank control was set up. The number of dead and live insects was investigated 72 hours later. The corrected mortality rate was calculated using the Abbott's formula, and the DPS data processing software was used for statistical analysis to calculate the toxicities (LC50 values) of the single test pesticides and the mixtures under the test ratios.
The test conditions, the preparation of the pesticide solution and the evaluation method were the same as those in Example 1.
The test subject, the test method, the test conditions, the preparation of the pesticide solution and the evaluation method were the same as those in Example 12.

[4] = tested on: 3rd-instar larvae of Chilo suppressalis (Walker); test: Joint toxicity of I-72 + methoxyfenozide, Example 53, Table 53; conditions: A = compound I-72, B = methoxyfenozide, rice stem dipping, 72 hours, read-out: LC50
Description: Test target: 3rd-instar larvae of Chilo suppressalis (Walker).
(§2) Preparation of the pesticide solution: according to different test requirements, the test samples were accurately weighed respectively with an electronic analytical balance. The technical pesticides were dissolved in acetone, and then diluted with 0.1% Tween 80 water into a series of pesticide solutions with a certain concentration gradient according to the experimental design dosage.
Experimental method: first, tender rice stems were selected and dipped in the prepared pesticide solution for 10 s in the order from low dosage to high dosage according to the experimental design. After natural air-drying in the shade, they were placed in a 9-cm-diameter Petri dish with filter paper, and uniform and healthy test insects were introduced, with 10 insects for each treatment and 3 replicates for each treatment. In addition, a blank control was set up.
(§3) The treated test materials were placed in an observation room, and the temperature, humidity and illumination of the observation room could be adjusted as needed. The number of dead and live insects was investigated 72 hours later. […] Then, the co-toxicity coefficient of each ratio was calculated using the Sun Y-P method to evaluate the mixing effect (the same as in Example 1).

[5] = tested on: adult Phyllotreta vittuta Fabr.; test: Joint toxicity of I-72 + cyantraniliprole, Example 63, Table 63; conditions: A = compound I-72, B = cyantraniliprole; potted cabbage seedling spraying; 72 hours; read-out: LC50
Description: Test target: adult Phyllotreta vittuta Fabr.
as §2
Experimental method: first, uniform and consistent potted cabbage seedlings were selected. Then, uniform spraying was performed with the pesticide solution in the order from low dosage to high dosage according to the experimental design. After air-drying in the shade, adult flea beetles were transferred onto the treated cabbage seedlings, and then glass covers were put on them, with about 30-40 adult flea beetles on each seedling and 3 replicates for each treatment. In addition, a blank control was set up.
as §3

Compound CN(C(=O)c1ccc2c(c1)OC(F)(F)O2)c1cccc(C(=O)Nc2c(Br)cc(C(F)(C(F)(F)F)C(F)(F)F)cc2OC(F)F)c1F [Compound I-72] has an LC50 [1] of 0.227 µg/mL, a mortality at 0.1 µg/mL ([2]; single agent 0.1 mg/L) of 22.9% and a mortality at 0.5 µg/mL ([2]; single agent 0.5 mg/L) of 41.7%. It also gave a mortality at 1 µg/mL ([2]; single agent 1 mg/L) of 60.4%, a mortality at 2 µg/mL ([2]; single agent 2 mg/L) of 70.8% and a mortality at 5 µg/mL ([2]; single agent 5 mg/L) of 87.5%. It also gave an LC50 [3] of 2.97 µg/mL, an LC50 [4] of 1.02 µg/mL and an LC50 [5] of 1.16 µg/mL.
